{"source": "patent US5326771A", "about": "“Piperidylmethyl-substituted chroman derivatives” (Bayer Aktiengesellschaft, priority 1991, dated 1994)", "key": {"5-HT1A receptor": {"target": "T1, 5-HT1A receptor (Bos taurus, UniProt F6Q2H9)", "T1 construct": "5-HT1A receptors in calf hippocampus membranes; from tissue; host or cells: calf hippocampus membranes", "T1 sequence (F6Q2H9 1-422)": "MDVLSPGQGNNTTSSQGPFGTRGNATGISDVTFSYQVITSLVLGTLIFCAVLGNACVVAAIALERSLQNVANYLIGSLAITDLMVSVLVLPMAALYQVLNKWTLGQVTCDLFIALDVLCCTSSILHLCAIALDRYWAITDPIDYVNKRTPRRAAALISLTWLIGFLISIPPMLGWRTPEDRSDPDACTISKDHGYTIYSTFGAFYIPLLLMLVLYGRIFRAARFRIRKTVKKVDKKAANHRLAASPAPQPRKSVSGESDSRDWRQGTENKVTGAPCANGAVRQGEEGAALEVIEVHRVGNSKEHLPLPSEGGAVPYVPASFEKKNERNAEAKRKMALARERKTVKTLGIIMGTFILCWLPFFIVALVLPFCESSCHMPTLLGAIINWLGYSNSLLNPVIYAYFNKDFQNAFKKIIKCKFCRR", "experiment": "Affinity for the 5-HT1A receptor (3H-ipsapirone bonding, calf hippocampus membranes)", "assay_type": "binding", "protocol": "[W. U. Dompert et al., Naunyn-Schmiedeberg's Arch. Pharmacol. (1985), 328, 467-470].\nThe bonding of ^3 H-ipsapirone to 5-HT1A receptors in calf hippocampus membranes is measured in this test."}, "5-HT1 receptor": {"target": "5-HT1 receptor", "experiment": "Affinity for the 5-HT1 receptor (receptor-bonding, 3H-serotonin, calf hippocampus membranes)", "assay_type": "binding", "conditions": "calf hippocampus membrane preparations, 3H-serotonin as radioligand", "protocol": "The high affinity of the compounds according to the invention for 5-hydroxytryptamine receptors of the subtype 1 is shown by way of example in Table [A]. The values stated are data which were determined from receptor-bonding studies using calf hippocampus membrane preparations. ^3 H-Serotonin was used as the radioactively labelled ligand for this purpose."}, "Dopamine D2 receptor": {"target": "T2, Dopamine D2 receptor (Rattus norvegicus, UniProt P61169)", "T2 construct": "membranes from the striatum of the rat; from tissue; host or cells: rat striatum membranes", "T2 sequence (P61169 whole entry)": "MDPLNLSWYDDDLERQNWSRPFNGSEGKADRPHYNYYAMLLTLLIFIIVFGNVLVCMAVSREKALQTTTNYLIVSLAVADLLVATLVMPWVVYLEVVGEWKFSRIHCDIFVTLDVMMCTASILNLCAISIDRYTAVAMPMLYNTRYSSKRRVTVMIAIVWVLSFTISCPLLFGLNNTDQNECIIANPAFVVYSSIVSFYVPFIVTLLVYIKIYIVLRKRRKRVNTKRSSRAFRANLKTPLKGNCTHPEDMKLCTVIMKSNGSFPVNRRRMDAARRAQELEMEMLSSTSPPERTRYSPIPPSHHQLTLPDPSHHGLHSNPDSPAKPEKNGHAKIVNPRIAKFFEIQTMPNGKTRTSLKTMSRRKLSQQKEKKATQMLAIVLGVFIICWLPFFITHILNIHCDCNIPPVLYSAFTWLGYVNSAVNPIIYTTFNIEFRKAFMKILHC", "experiment": "Dopamine D2 receptor test (3H-sulpiride bonding, rat striatum membranes)", "assay_type": "binding", "conditions": "Ki calculated from IC50 of displacement curves", "protocol": "This test is carried out in accordance with the following literature reference: Imafuku J. (1987), Brain Research 402; 331-338.\nThe bonding of the selective D2 receptor antagonist ^3 H-sulpiride to membranes from the striatum of the rat is measured here. Compounds which bond to dopamine D2 receptors inhibit the bonding of ^3 H-sulpiride as a function of the concentration. IC50 values are determined from the displacement curves, and the inhibition constants Ki are calculated from these."}, "α-adrenergic": {"test_system": "α-adrenergic", "conditions": "in the form of its hydrochloride; Eur. J. Med. Chem. 22 (6), 539-544; cited from earlier work"}}, "note": "Counter-ions that a name gives are not always drawn.", "data": [{"smiles": "COc1cccc2c1OC(CN1CCC(O)(c3cccc(C(F)(F)F)c3)CC1)CC2", "note": "(centres unmarked) [Example 9]", "values": [{"measurement": "Ki", "setting": "5-HT1A receptor", "value": 6, "unit": "nM"}]}, {"smiles": "COc1cccc2c1OC(CN1CCC(O)(c3ccc(Cl)cc3)CC1)CC2", "note": "(centres unmarked) [Example 1, 2-[4-(4-Chlorophenyl)-4-hydroxy-piperidin-1-yl]methyl-8-methoxy-chroman hydrochloride]", "values": [{"measurement": "Ki", "setting": "5-HT1 receptor", "value": 22, "unit": "nM"}]}, {"smiles": "OC1(c2ccc(Cl)cc2)CCN(CC2CCc3ccccc3O2)CC1", "note": "(centres unmarked) [Example 4]", "values": [{"measurement": "Ki", "setting": "5-HT1 receptor", "value": 76, "unit": "nM"}, {"measurement": "Ki", "setting": "Dopamine D2 receptor", "value": 2.5, "unit": "nM"}]}, {"smiles": "OC1(c2cccc(C(F)(F)F)c2)CCN(CC2CCc3ccccc3O2)CC1", "note": "(centres unmarked) [Example 10]", "values": [{"measurement": "Ki", "setting": "Dopamine D2 receptor", "value": 2.3, "unit": "nM"}]}, {"smiles": "OC1(c2ccc(Cl)c(C(F)(F)F)c2)CCN(CC2CCc3ccccc3O2)CC1", "note": "(centres unmarked) [Example 8]", "values": [{"measurement": "Ki", "setting": "Dopamine D2 receptor", "value": 0.9, "unit": "nM"}]}, {"smiles": "COc1cccc2c1OC(CN1CCC(c3ccccc3)(c3ccccc3)CC1)CC2", "note": "(centres unmarked) [Example 5]", "values": [{"measurement": "Ki", "setting": "5-HT1A receptor", "value": 9.9, "unit": "nM"}]}, {"smiles": "c1ccc2c(c1)CCC(CN1CCCCC1)O2", "note": "(centres unmarked) [1-[(3,4-dihydro-2H-1-benzopyran-2-yl)methyl]piperidine]", "values": [{"measurement": "α-adrenergic blocking action", "setting": "α-adrenergic", "value": "having an α-adrenergic blocking action"}]}]}
